These results are taken from USRE49080E1, “Glycoside derivatives and uses thereof” (Novartis AG, priority 2009, dated 2022).

In one assay the target is human SGLT1 (Homo sapiens (Human), UniProt P13866). Description: SGLT1 assay: analogous test with hSGLT1 cDNA expressed in CHO-K1 or HEK293 cells. The note with it: n = 1-4; 14C-AMG uptake, cells expressing hSGLT1. Format: cell-based. The method, then:
(§1) The SGLT-2 assay is carried out as follows: CHO-hSGLT2 cells are cultivated in Ham's F12 Medium (BioWhittaker) with 10% foetal calf serum and 250 μg/mL zeocin (Invitrogen), and HEK293-hSGLT2 cells are cultivated in DMEM medium with 10% foetal calf serum and 250 μg/mL zeocin (Invitrogen). The cells are detached from the culture flasks by washing twice with PBS and subsequently treating with trypsin/EDTA. After the addition of cell culture medium the cells are centrifuged, resuspended in culture medium and counted in a Casy cell counter. Then 40,000 cells per well are seeded into a white, 96-well plate coated with poly-D-lysine and incubated overnight at 37° C., 5% CO2. The cells are washed twice with 250 μl of assay buffer (Hanks Balanced Salt Solution, 137 mM NaCl, 5.4 mM KCl, 2.8 mM CaCl2, 1.2 mM MgSO4 and 10 mM HEPES (pH 7.4), 50 μg/mL of gentamycin). 250 μl of assay buffer and 5 μl of test compound are then added to each well and the plate is incubated for a further 15 minutes in the incubator. 5 μl of 10% DMSO are used as the negative control. The reaction is started by adding 5 μl of 14 C-AMG (0.05 μCi) to each well. After 2 hours' incubation at 37° C., 5% CO2, the cells are washed again with 250 μl of PBS […] and then lysed by the addition of 25 μl of 0.1 N NaOH (5 min. at 37° C.). 200 μl of MicroScint20 (Packard) are added to each well and incubation is continued for a further 20 min at 37° C. After this incubation the radioactivity of the 14 C-AMG absorbed is measured in a Topcount (Packard) using a 14 C scintillation program.
To determine the selectivity with respect to human SGLT1 an analogous test is set up in which the cDNA for hSGLTI (Genbank Ace. No. NM000343) instead of hSGLT2 cDNA is expressed in CHO-K1 or HEK293 cells.

In assay [1] the target is human sodium glucose co-transporter 2 (Homo sapiens (Human), UniProt P31639). Description: SGLT-2 assay: 14C-AMG uptake in CHO-hSGLT2 or HEK-hSGLT2 cells. The assay is classed as cell-based. Particulars: n = 1-4, cells stably transfected with hSGLT2, read-out: SGLT2 IC50 nM (n = 1-4). The method, then: These cell lines transport 14 C-labelled alpha-methyl-glucopyranoside (14 C-AMG, Amersham) into the interior of the cell in sodium-dependent manner.
Chain of human sodium glucose co-transporter 2 (P31639 whole entry): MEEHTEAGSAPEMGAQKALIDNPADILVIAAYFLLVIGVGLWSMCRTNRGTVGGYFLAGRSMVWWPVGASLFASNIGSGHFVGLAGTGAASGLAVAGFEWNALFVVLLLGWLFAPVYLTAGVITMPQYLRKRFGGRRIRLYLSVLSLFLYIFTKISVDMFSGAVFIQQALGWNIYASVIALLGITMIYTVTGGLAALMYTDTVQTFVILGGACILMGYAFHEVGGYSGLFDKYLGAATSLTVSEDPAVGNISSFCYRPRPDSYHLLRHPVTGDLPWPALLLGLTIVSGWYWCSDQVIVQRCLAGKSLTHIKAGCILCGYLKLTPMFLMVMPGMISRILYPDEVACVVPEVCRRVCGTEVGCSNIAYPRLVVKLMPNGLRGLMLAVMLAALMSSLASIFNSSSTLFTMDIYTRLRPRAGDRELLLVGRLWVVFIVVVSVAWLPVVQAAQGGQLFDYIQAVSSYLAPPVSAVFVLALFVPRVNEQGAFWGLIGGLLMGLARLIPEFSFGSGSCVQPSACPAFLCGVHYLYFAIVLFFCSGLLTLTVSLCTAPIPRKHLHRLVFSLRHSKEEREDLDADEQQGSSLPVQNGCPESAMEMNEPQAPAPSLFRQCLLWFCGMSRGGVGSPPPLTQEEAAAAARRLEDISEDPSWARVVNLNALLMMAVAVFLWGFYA
as §1

Chain of human SGLT1 (P13866 whole entry): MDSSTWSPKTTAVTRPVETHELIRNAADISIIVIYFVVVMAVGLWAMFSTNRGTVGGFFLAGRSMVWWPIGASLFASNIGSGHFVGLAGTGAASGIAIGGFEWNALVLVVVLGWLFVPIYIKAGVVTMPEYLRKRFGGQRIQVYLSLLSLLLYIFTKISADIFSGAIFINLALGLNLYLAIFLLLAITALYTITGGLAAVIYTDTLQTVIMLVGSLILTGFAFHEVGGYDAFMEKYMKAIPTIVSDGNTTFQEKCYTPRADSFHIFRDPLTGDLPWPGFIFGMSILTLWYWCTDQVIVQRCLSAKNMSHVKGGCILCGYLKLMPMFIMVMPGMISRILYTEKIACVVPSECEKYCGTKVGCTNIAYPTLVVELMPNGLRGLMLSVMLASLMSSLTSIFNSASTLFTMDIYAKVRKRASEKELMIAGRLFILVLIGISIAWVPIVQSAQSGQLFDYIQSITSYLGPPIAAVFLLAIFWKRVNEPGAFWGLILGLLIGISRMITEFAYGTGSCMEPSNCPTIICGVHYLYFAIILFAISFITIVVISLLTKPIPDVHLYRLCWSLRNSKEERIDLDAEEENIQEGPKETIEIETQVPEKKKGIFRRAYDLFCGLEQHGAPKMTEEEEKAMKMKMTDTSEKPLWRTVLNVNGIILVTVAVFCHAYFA

On to `CCN1CCOc2cc(Cc3cc([C@@H]4O[C@H](CO)[C@@H](O)[C@H](O)[C@H]4O)ccc3Cl)ccc21` [Example 2, (2S,3R,4R,5S,6R)-2-[4-Chloro-3-(4-ethyl-3,4-dihydro-2H-benzo[1,4]oxazin-7-ylmethyl)-phenyl]-6-hydroxymethyl-tetrahydro-pyran-3,4,5-triol], for which the IC50 (as a rule, the point on the concentration scale where inhibition reaches its midpoint) on human SGLT1 came to 2500 nM; in assay [1], 11.1 nM.

For the molecule `OC[C@H]1O[C@@H](c2ccc(Cl)c(Cc3ccc4c(c3)OCCN4)c2)[C@H](O)[C@@H](O)[C@@H]1O` [Example 28, (2S,3R,4R,5S,6R)-2-[4-Chloro-3-(3,4-dihydro-2H-benzo[1,4]oxazin-7-ylmethyl)-phenyl]-6-hydroxymethyl-tetrahydro-pyran-3,4,5-triol], the IC50 against human SGLT1 was found to be 1000 nM; in assay [1] it was 0.33 nM. Regarding `CC1(C)Oc2ccc(Cc3cc([C@@H]4O[C@H](CO)[C@@H](O)[C@H](O)[C@H]4O)ccc3Cl)cc2NC1=O` [Example 46, 6-[2-Chloro-5-((2S,3R,4R,5S,6R)-3,4,5-trihydroxy-6-hydroxymethyl-tetrahydro-pyran-2-yl)-benzyl]-2,2-dimethyl-4H-benzo[1,4]oxazin-3-one], the 50% inhibitory concentration (IC50) is more than 3900 nM on human SGLT1 and 14 nM in assay [1]. As for `OC[C@H]1O[C@@H](c2ccc(Cl)c(Cc3ccc4c(c3)C(O)CCO4)c2)[C@H](O)[C@@H](O)[C@@H]1O` (stereo partly drawn) [Example 36, (2S,3R,4R,5S,6R)-2-[4-Chloro-3-(4-hydroxy-chroman-6-ylmethyl)-phenyl]-6-hydroxymethyl-tetrahydro-pyran-3,4,5-triol], the IC50 in assay [1] turned out to be 28 nM. For `OC[C@H]1O[C@@H](c2ccc(Cl)c(Cc3ccc4c(c3)CCN4)c2)[C@H](O)[C@@H](O)[C@@H]1O` [Example 17, (2S,3R,4R,5S,6R)-2-[4-Chloro-3-(2,3-dihydro-1H-indol-5-ylmethyl)-phenyl]-6-hydroxymethyl-tetrahydro-pyran-3,4,5-triol], the IC50 was determined as 480 nM against human SGLT1 and 0.8 nM in assay [1]. As to `OC[C@H]1O[C@@H](c2ccc(Cl)c(Cc3ccc4c(c3)C3(CCO4)CC3)c2)[C@H](O)[C@@H](O)[C@@H]1O` [Example 29, (2S,3R,4R,5S,6R)-2-[4-Chloro-3-(4,4-spiro-cyclopropyl-chroman-6-ylmethyl)-phenyl]-6-hydroxymethyl-tetrahydro-pyran-3,4,5-triol], the values for the 50% inhibitory concentration (IC50) (on human SGLT1; in assay [1]) were 7000 nM and 84.5 nM, respectively. With `O=C1COc2ccc(Cc3cc([C@@H]4O[C@H](CO)[C@@H](O)[C@H](O)[C@H]4O)ccc3Cl)cc2N1` [Example 47, 6-(2-chloro-5-((2S,3R,4R,5S,6R)-3,4,5-trihydroxy-6-(hydroxymethyl)tetrahydro-2H-pyran-2-yl)benzyl)-2H-benzo[b][1,4]oxazin-3(4H)-one], the half-maximal inhibitory concentration (IC50) on human SGLT1 was more than 3200 nM; in assay [1], 16.5 nM.

As to `CC(C)c1ccc([C@@H]2O[C@H](CO)[C@@H](O)[C@H](O)[C@H]2O)cc1Cc1ccc2c(c1)NCCC2` [Example 71, (2R,3S,4R,5R,6S)-2-Hydroxymethyl-6-[4-isopropyl-3-(1,2,3,4-tetrahydro-quinolin-7-ylmethyl)-phenyl]-tetrahydro-pyran-3,4,5-triol], the values for the IC50 (at human SGLT1; in assay [1]) were 19 nM and 1.5 nM, respectively.

Consider `CC(C)c1ccc([C@@H]2O[C@H](CO)[C@@H](O)[C@H](O)[C@H]2O)cc1Cc1ccc2c(c1)NCCO2` [Example 69, (2S,3R,4R,5S,6R)-2-[3-(3,4-Dihydro-2H-benzo[1,4]oxazin-6-ylmethyl)-4-isopropyl-phenyl]-6-hydroxymethyl-tetrahydro-pyran-3,4,5-triol], for which the IC50 came out at 37 nM on human SGLT1 and 1.2 nM in assay [1]. Regarding `OC[C@H]1O[C@@H](c2ccc(Cl)c(Cc3ccc4c(c3)CCC3(CCCC3)O4)c2)[C@H](O)[C@@H](O)[C@@H]1O` [Example 38, (2S,3R,4R,5S,6R)-2-[4-Chloro-3-(spiro[chromane-2,1′-cyclopentane]-6-ylmethyl)phenyl]-6-(hydroxymethyl)tetrahydropyran-3,4,5-triol], the 50% inhibitory concentration (IC50) in assay [1] came out at 14.4 nM.

Regarding `COc1ccc([C@@H]2O[C@H](CO)[C@@H](O)[C@H](O)[C@H]2O)cc1Cc1ccc2c(c1)CCC1(CCC1)O2` [Example 41, (2S,3R,4R,5S,6R)-2-[4-methoxy-3-(spiro[chromane-2,1′-cyclobutane]-6-ylmethyl)phenyl]-6-(hydroxymethyl)tetrahydropyran-3,4,5-triol], the results for the half-inhibitory concentration (IC50) (against human SGLT1; in assay [1]) were 1620 nM and 16.2 nM, respectively. Take `OC[C@H]1O[C@@H](c2ccc(Cl)c(Cc3ccc4c(c3)CCCO4)c2)[C@H](O)[C@@H](O)[C@@H]1O` [Example 21, (2S,3R,4R,5S,6R)-2-(4-Chloro-3-chroman-6-ylmethyl-phenyl)-6-hydroxymethyl-tetrahydro-pyran-3,4,5-triol]: the IC50 on human SGLT1 came out at 1100 nM; in assay [1], 0.2 nM. On to `CCN1CCOc2ccc(Cc3cc([C@@H]4O[C@H](CO)[C@@H](O)[C@H](O)[C@H]4O)ccc3Cl)cc21` [Example 9, (2S,3R,4R,5S,6R)-2-[4-Chloro-3-(4-ethyl-3,4-dihydro-2H-benzo[1,4]oxazin-6-ylmethyl)-phenyl]-6-hydroxymethyl-tetrahydro-pyran-3,4,5-triol], for which, in assay [1], the IC50 worked out at 7.2 nM. On to `CC1(C)CNc2cc(Cc3cc([C@@H]4O[C@H](CO)[C@@H](O)[C@H](O)[C@H]4O)ccc3Cl)ccc2O1` [Example 20, (2S,3R,4R,5S,6R)-2-[4-Chloro-3-(2,2-dimethyl-3,4-dihydro-2H-benzo[1,4]oxazin-6-ylmethyl)-phenyl]-6-hydroxymethyl-tetrahydro-pyran-3,4,5-triol], for which the IC50 is more than 3700 nM at human SGLT1 and 0.55 nM in assay [1]. As to `OC[C@H]1O[C@@H](c2ccc(OC(F)(F)F)c(Cc3ccc4c(c3)CCCO4)c2)[C@H](O)[C@@H](O)[C@@H]1O` [Example 33, (2S,3R,4R,5S,6R)-2-(3-Chroman-6-ylmethyl-4-trifluoromethoxy-phenyl)-6-hydroxymethyl-tetrahydro-pyran-3,4,5-triol], the IC50 against human SGLT1 was 157 nM; in assay [1], 11 nM. As for `OC[C@H]1O[C@@H](c2ccc(Cl)c(Cc3ccc4c(c3)N(CC3CC3)CCO4)c2)[C@H](O)[C@@H](O)[C@@H]1O` [Example 10, (2S,3R,4R,5S,6R)-2-[4-Chloro-3-(4-cyclopropylmethyl-3,4-dihydro-2H-benzo[1,4]oxazin-6-ylmethyl)-phenyl]-6-hydroxymethyl-tetrahydro-pyran-3,4,5-triol], the IC50 in assay [1] is 18 nM. As to `CN1CCOc2cc(Cc3cc([C@@H]4O[C@H](CO)[C@@H](O)[C@H](O)[C@H]4O)ccc3Cl)ccc21` [Example 1, (2S,3R,4R,5S,6R)-2-[4-Chloro-3-(4-methyl-3,4-dihydro-2H benzo[1,4]oxazin-7-ylmethyl)-phenyl]-6-hydroxymethyl-tetrahydro-pyran-3,4,5-triol], the IC50 against human SGLT1 turned out to be 655 nM; in assay [1], 2.7 nM.

As for `COc1ccc([C@@H]2O[C@H](CO)[C@@H](O)[C@H](O)[C@H]2O)cc1Cc1ccc2c(c1)OCCO2` [Example 25, (2S,3R,4R,5S,6R)-2-[3-(2,3-Dihydro-benzo[1,4]dioxin-6-ylmethyl)-4-methoxy-phenyl]-6-hydroxymethyl-tetrahydro-pyran-3,4,5-triol], the results for the IC50 (against human SGLT1; in assay [1]) were 40 nM and 1.5 nM, respectively. On to `COc1ccc([C@@H]2O[C@H](CO)[C@@H](O)[C@H](O)[C@H]2O)cc1Cc1ccc2c(c1)NCCO2` [Example 31, (2S,3R,4R,5S,6R)-2-[3-(3,4-Dihydro-2H-benzo[1,4]oxazin-6-ylmethyl)-4-methoxy-phenyl]-6-hydroxymethyl-tetrahydro-pyran-3,4,5-triol], for which the IC50 on human SGLT1 stood at 404 nM; in assay [1], 1.2 nM. Regarding `OC[C@H]1O[C@@H](c2ccc(Cl)c(Cc3ccc4c(c3)CCO4)c2)[C@H](O)[C@@H](O)[C@@H]1O` [Example 22, (2S,3R,4R,5S,6R)-2-[4-Chloro-3-(2,3-dihydro-benzofuran-5-ylmethyl)-phenyl]-6-hydroxymethyl-tetrahydro-pyran-3,4,5-triol], the IC50 in assay [1] was 0.4 nM. As for `OC[C@H]1O[C@@H](c2ccc(Cl)c(Cc3ccc4c(c3)N(Cc3ccccc3)CCO4)c2)[C@H](O)[C@@H](O)[C@@H]1O` [Example 4, (2S,3R,4R,5S,6R)-2-[3-(4-Benzyl-3,4-dihydro-2H-benzo[1,4]oxazin-6-ylmethyl)-4-chloro-phenyl]-6-hydroxymethyl-tetrahydro-pyran-3,4,5-triol], in assay [1], the IC50 is 65 nM. On the same count and under the same terms, the figure for `OC[C@H]1O[C@@H](c2ccc(Cl)c(Cc3ccc4c(c3)OCCN4C3CC3)c2)[C@H](O)[C@@H](O)[C@@H]1O` [Example 3, (2S,3R,4R,5S,6R)-2-[4-Chloro-3-(4-cyclopropyl-3,4-dihydro-2Hbenzo[1,4]oxazin-7ylmethyl)-phenyl]-6-hydroxymethyltetrahydropyran3,4,5-triol] is 16 nM.
